ChEMBL document CHEMBL4765389, “Antimicrobial and anti-inflammatory activities of short dodecapeptides derived from duck cathelicidin: Plausible mechanism of bactericidal action and endotoxin neutralization” (Eur J Med Chem, 2020)
The source made the active and inactive calls. No cut-off for these calls is given here.

How the values were obtained:
[1] = system: Pseudomonas aeruginosa; assay: Antibacterial activity against Pseudomonas aeruginosa KCTC 1637 assessed as reduction in bacterial growth incubated for 24 hrs by CLSI based broth dilution method; type: functional; settings: read-out: MIC100
[2] = system: Cell membrane; assay: Induction of cell membrane permeability in Escherichia coli KCTC 1682 assessed as cytoplasmic membrane […] fluorescent signals at 2 times MIC measured after 1 hr by propidium iodide dye based flow cytometry analysis (reference value: 9.8 %); type: subcellular
[3] = system: RAW264.7; assay: Antiinflammatory activity against mouse RAW264.7 cells assessed as reduction in LPS-induced TNFalpha level at 10 uM incubated for 24 hrs by […] relative to control; type: functional
[4] = system: Staphylococcus aureus; assay: Antibacterial activity against Staphylococcus aureus KCTC 1621 assessed as reduction in bacterial growth incubated for 24 hrs in presence of 4.5 mM KCl by CLSI based broth dilution method; type: functional; settings: read-out: MIC100
[5] = system: Erythrocyte; assay: Hemolytic activity in sheep RBC assessed as reduction in hemoglobin incubated for 1 hr; type: ADME, cell-based, Ovis aries
[6] = Therapeutic index, ratio of HC10 for sheep RBC to geometric mean MIC for gram negative bacteria; type: toxicity; settings: sheep red blood cells, read-out: TI
[7] = Antibacterial activity against multidrug-resistant Pseudomonas aeruginosa CCARM 2095 assessed as reduction in bacterial growth incubated for 24 hrs in presence of oxacillin by CLSI based broth dilution method; type: functional; settings: read-out: MIC100
[8] = system: Cell membrane; assay: Induction of cell membrane permeability in Staphylococcus aureus KCTC 1621 assessed as cytoplasmic membrane depolarization at 16 uM by DiSC3-5 dye based spectrofluorometry; type: subcellular
[9] = system: Enterococcus faecium; assay: Antibacterial activity against vancomycin-resistant Enterococcus faecium ATCC 51559 assessed as reduction in bacterial growth incubated for 24 hrs by CLSI based broth dilution method; type: functional; settings: read-out: MIC100
[10] = system: Escherichia coli; assay: Antibacterial activity against Escherichia coli KCTC 1682 assessed as reduction in bacterial growth incubated for 24 hrs in presence of 20 % serum by CLSI based broth dilution method; type: functional; settings: read-out: MIC100
[11] = system: Erythrocyte; assay: Hemolytic activity in sheep RBC assessed as reduction in hemoglobin at 256 uM incubated for 1 hr; type: ADME, cell-based, Ovis aries
[12] = Antibacterial activity against multidrug-resistant Pseudomonas aeruginosa CCARM 2095 assessed as fractional inhibitory concentration incubated for 24 hrs in presence of oxacillin by CLSI based broth dilution method; type: functional
[13] = system: Staphylococcus aureus; assay: Antibacterial activity against methicillin-resistant Staphylococcus aureus CCARM 3089 assessed as reduction in bacterial growth incubated for 24 hrs by CLSI based broth dilution method; type: functional; settings: read-out: MIC100
[14] = system: Staphylococcus aureus; assay: Antibacterial activity against methicillin-resistant Staphylococcus aureus CCARM 3090 assessed as fractional inhibitory concentration incubated for 24 hrs in presence of oxacillin by CLSI based broth dilution method; type: functional
[15] = system: RAW264.7; assay: Antiinflammatory activity against mouse RAW264.7 cells assessed as reduction in LPS-induced iNOS mRNA expression at 5 uM incubated for 6 hrs by qRT-PCR analysis; type: functional, cell-based
[16] = Antibacterial activity against multidrug-resistant Pseudomonas aeruginosa CCARM 2095 assessed as fractional inhibitory concentration index incubated for 24 hrs in presence of chloramphenicol by CLSI based broth dilution method; type: functional
[17] = system: RAW264.7; assay: Antiinflammatory activity in mouse RAW264.7 cells assessed as suppression of LPS binding by measuring LPS-FITC aggregation at 10 uM pretreated with LPS for 1 hr followed by compound addition and measured after 30 mins by flowcytometry analysis (reference value: 67.93 %); type: functional; settings: 0.5 h
[18] = system: Staphylococcus aureus; assay: Antibacterial activity against methicillin-resistant Staphylococcus aureus CCARM 3090 assessed as reduction in bacterial growth incubated for 24 hrs in presence of ciprofloxacin by CLSI based broth dilution method; type: functional; settings: read-out: MIC100
[19] = system: Lipopolysaccharide (LPS); assay: Displacement of BODIPY-TR cadaverine from Escherichia coli O111:B4 LPS at 20 uM measured for 100 sec by spectrofluorometry relative to control
[20] = Therapeutic index, ratio of HC10 for sheep RBC to geometric mean MIC for gram positive bacteria; type: toxicity; settings: sheep red blood cells, read-out: TI
[21] = system: Staphylococcus aureus; assay: Antibacterial activity against methicillin-resistant Staphylococcus aureus CCARM 3090 assessed as fractional inhibitory concentration incubated for 24 hrs in presence of chloramphenicol by CLSI based broth dilution method; type: functional
[22] = Antibacterial activity against multidrug-resistant Pseudomonas aeruginosa CCARM 2095 assessed as fractional inhibitory concentration index incubated for 24 hrs in presence of oxacillin by CLSI based broth dilution method; type: functional
[23] = system: Bacteria; assay: Antibacterial activity against Gram negative bacteria assessed as reduction in bacterial growth incubated for 24 hrs by CLSI based broth dilution method; type: functional; settings: read-out: MIC100
[24] = system: Staphylococcus aureus; assay: Antibacterial activity against Staphylococcus aureus KCTC 1621 assessed as reduction in bacterial growth incubated for 24 hrs by CLSI based broth dilution method; type: functional; settings: read-out: MIC100
[25] = system: Cell membrane; assay: Induction of cell membrane permeability in Escherichia coli KCTC 1682 assessed as […] at 16 uM by ONPG dye based spectrophotometry; type: subcellular
[26] = Antibacterial activity against multidrug-resistant Pseudomonas aeruginosa CCARM 2095 assessed as fractional inhibitory concentration incubated for 24 hrs in presence of ciprofloxacin by CLSI based broth dilution method; type: functional
[27] = system: Staphylococcus aureus; assay: Antibacterial activity against methicillin-resistant Staphylococcus aureus CCARM 3090 assessed as reduction in bacterial growth incubated for 24 hrs in presence of oxacillin by CLSI based broth dilution method; type: functional; settings: read-out: MIC100
[28] = Antibacterial activity against multidrug-resistant Pseudomonas aeruginosa CCARM 2109 assessed as reduction in bacterial growth incubated for 24 hrs by CLSI based broth dilution method; type: functional; settings: read-out: MIC100
[29] = system: Staphylococcus epidermidis; assay: Antibacterial activity against Staphylococcus epidermidis KCTC 1917 assessed as reduction in bacterial growth incubated for 24 hrs by CLSI based broth dilution method; type: functional; settings: read-out: MIC100
[30] = system: Salmonella typhimurium; assay: Antibacterial activity against Salmonella typhimurium KCTC 1926 assessed as reduction in bacterial growth incubated for 24 hrs by CLSI based broth dilution method; type: functional, Salmonella enterica subsp. enterica serovar Typhimurium; settings: Salmonella enterica, read-out: MIC100
[31] = system: Staphylococcus aureus; assay: Antibacterial activity against methicillin-resistant Staphylococcus aureus CCARM 3090 assessed as fractional inhibitory concentration index incubated for 24 hrs in presence of ciprofloxacin by CLSI based broth dilution method; type: functional
[32] = Antibacterial activity against multidrug-resistant Pseudomonas aeruginosa CCARM 2095 assessed as reduction in bacterial growth incubated for 24 hrs by CLSI based broth dilution method; type: functional; settings: read-out: MIC100
[33] = Antibacterial activity against multidrug-resistant Pseudomonas aeruginosa CCARM 2095 assessed as fractional inhibitory concentration incubated for 24 hrs in presence of chloramphenicol by CLSI based broth dilution method; type: functional
[34] = system: Escherichia coli; assay: Antibacterial activity against Escherichia coli KCTC 1682 assessed as reduction in bacterial growth incubated for 24 hrs in presence of 4.5 mM KCl by CLSI based broth dilution method; type: functional; settings: read-out: MIC100
[35] = system: Escherichia coli; assay: Bacteriostatic activity against Escherichia coli KCTC 1682 assessed as reduction in colony forming unit at 0.5 times MIC measured for 24 hrs by time kill assay; type: functional
[36] = system: Escherichia coli; assay: Antibacterial activity against Escherichia coli KCTC 1682 assessed as reduction in bacterial growth incubated for 24 hrs by CLSI based broth dilution method; type: functional; settings: read-out: MIC100
[37] = system: Lipopolysaccharide (LPS); assay: Displacement of BODIPY-TR cadaverine from Escherichia coli O111:B4 LPS measured for 100 sec by spectrofluorometry

Substance	MIC [1] [µM]	Activity [2] [%]	inhibition at 10 µM [3] [%]	MIC [4] [µM]	HC10 [5] [µM]	selectivity ratio [6]	MIC [7] [µM]	Activity [8]	MIC [9] [µM]	MIC [10] [µM]	Activity [11]	FIC [12]	MIC [13] [µM]	FIC [14]	inhibition [15]	fractional inhibitory concentration index (FICI) [16]	Activity [17] [%]	MIC [18] [µM]	selectivity ratio [20]	FIC [21]	also measured
H-LIKKIYRKWKRW-NH2	2	9.53	47.3	4	> 256	91.4	64	inactive	8	8	Non-Toxic	0.125	16	0.125	Active	0.313	32.51	128	71.1	0.25	Activity [19]: 68%; fractional inhibitory concentration index (FICI) [22]: 0.375; MIC [23]: 5.6 µM; MIC [24]: 4 µM; Activity [25]: inactive; FIC [26]: 0.125; MIC [27]: 64 µM; MIC [28]: 8 µM; MIC [29]: 4 µM; MIC [30]: 2 µM; fractional inhibitory concentration index (FICI) [31]: 0.5; MIC [32]: 8 µM; FIC [33]: 0.0625; MIC [34]: 2 µM; Activity [35]: 3 log10CFU/ml; MIC [36]: 8 µM
H-LWKKIYRKWKRW-NH2	2	6.31	65	4	> 256	128	64	inactive	8	8	Non-Toxic	0.125	16	0.125	Active	0.375	17.64	64	753	0.25	fractional inhibitory concentration index (FICI) [22]: 0.375; MIC [23]: 4 µM; MIC [24]: 2 µM; Activity [25]: inactive; FIC [26]: 0.125; MIC [27]: 64 µM; MIC [28]: 4 µM; Activity [37]: Dose-dependent effect; MIC [29]: 4 µM; MIC [30]: 2 µM; fractional inhibitory concentration index (FICI) [31]: 0.375; MIC [32]: 8 µM; FIC [33]: 0.125; MIC [34]: 4 µM; Activity [35]: 3 log10CFU/ml; MIC [36]: 4 µM
